# Experimental data as given in ChEMBL document CHEMBL1126299, “Synthesis and structure-activity relationships of cephalosporins with C-3' catechol-containing residues” (J Med Chem, 1992).
# Tests used:
# [1] = The compound was evaluated for area under the curve in marmosets; format: ADME; conditions: callithrix, in vivo
# [2] = The half life period in marmosets; format: ADME; conditions: callithrix, in vivo
# [3] = physchem
# Description: The dissociation constant of compound was tested for beta-Lactamase stability
# [4] = tested on: Staphylococcus aureus; test: microbe, parasite or virus in culture
# [5] = tested on: Citrobacter freundii; test: microbe, parasite or virus in culture
# Description: Minimum inhibitory concentration in Citrobacter freundii, DR 382031 constitutive depressed type 1
# [6] = tested on: Citrobacter freundii; test: microbe, parasite or virus in culture; remark: listed apart in the source
# Description: Minimum inhibitory concentration in Citrobacter freundii, I+382010 inducible type 1 lactamase producer
# [7] = tested on: Enterobacter cloacae; test: microbe, parasite or virus in culture
# Description: Minimum inhibitory concentration in Enterobacter cloacae, DR 401108 constitutive depressed type 1 lactamase producer
# [8] = tested on: Escherichia coli; test: microbe, parasite or virus in culture
# Description: In vitro minimum inhibitory concentration against Escherichia coli (DC0 parent organism).
# [9] = tested on: Enterobacter cloacae; test: microbe, parasite or virus in culture; remark: listed apart in the source
# Description: Minimum inhibitory concentration in Enterobacter cloacae, P99+ constitutive depressed type 1 lactamase producer
# [10] = tested on: Enterobacter cloacae; test: microbe, parasite or virus in culture; remark: listed apart in the source
# Description: Minimum inhibitory concentration in Enterobacter cloacae, I+401029 inducible type 1 lactamase producer
# [11] = tested on: Enterobacter cloacae; test: microbe, parasite or virus in culture; remark: listed apart in the source
# Description: Minimum inhibitory concentration in Enterobacter cloacae, P99- inducible type 1 lactamase producer
# [12] = tested on: Escherichia coli; test: microbe, parasite or virus in culture; remark: listed apart in the source
# Description: In vitro minimum inhibitory concentration against Escherichia coli (DC2 permeability mutant).
# [13] = tested on: Pseudomonas aeruginosa; test: microbe, parasite or virus in culture
# Description: Minimum inhibitory concentration in Pseudomonas aeruginosa, 18S inducible type 1 lactamase producer
# [14] = tested on: Pseudomonas aeruginosa; test: microbe, parasite or virus in culture; remark: listed apart in the source
# Description: In vitro minimum inhibitory concentration against Pseudomonas aeruginosa (PU21).
# [15] = tested on: Pseudomonas aeruginosa; test: microbe, parasite or virus in culture; remark: listed apart in the source
# Description: Minimum inhibitory concentration in Pseudomonas aeruginosa, 18SH constitutive depressed type 1 lactamase producer
# [16] = tested on: Pseudomonas aeruginosa; test: microbe, parasite or virus in culture; remark: listed apart in the source
# Description: Minimum inhibitory concentration in Pseudomonas aeruginosa,799WT parent organism
# [17] = tested on: Providencia stuartii; test: microbe, parasite or virus in culture
# Description: Minimum inhibitory concentration in Pseudomonas stuartii, DR 442049 constitutive depressed type 1 lactamase producer
# [18] = tested on: Providencia stuartii; test: microbe, parasite or virus in culture; remark: listed apart in the source
# Description: Minimum inhibitory concentration in Pseudomonas stuartii, I+442019 inducible type 1 lactamase producer
# [19] = tested on: Staphylococcus aureus; test: microbe, parasite or virus in culture; remark: listed apart in the source
# [20] = tested on: Pseudomonas aeruginosa; test: microbe, parasite or virus in culture; remark: listed apart in the source
# Description: Minimum inhibitory concentration in Pseudomonas aeruginosa,799/61 permeability mutant
# [21] = tested on: Staphylococcus aureus; test: The compound was tested for minimum inhibitory concentration in Staphylococcus aureus Oxford penicillin sensitive Staphylococcus aureus; format: functional
# [22] = tested on: Staphylococcus aureus; test: The compound was tested for minimum inhibitory concentration in Staphylococcus aureus,147N penicillin sensitive Staphylococcus aureus; format: functional
# [23] = tested on: Pseudomonas aeruginosa; test: The compound was tested for minimum inhibitory concentration in Pseudomonas aeruginosa,799/61 permeability mutant; format: functional
SMILES,AUC [1] [mg/h/L],half-life [2] [h],pKa [3],MIC [4] [µg/mL],MIC [5] [µg/mL],MIC [6] [µg/mL],MIC [7] [µg/mL],MIC [8] [µg/mL],MIC [9] [µg/mL],MIC [10] [µg/mL],MIC [11] [µg/mL],MIC [12] [µg/mL],MIC [13] [µg/mL],MIC [14] [µg/mL],MIC [15] [µg/mL],MIC [16] [µg/mL],MIC [17] [µg/mL],MIC [18] [µg/mL],MIC [19] [µg/mL],MIC [20] [µg/mL],further results
CC(C)(O/N=C(\C(=O)N[C@@H]1C(=O)N2C(C(=O)O)=C(CNC(=O)c3cc(O)c(O)c(Cl)c3)CSC12)c1csc(N)n1)C(=O)O (some centres not stated),638.3,4.57,7,16,4,0.008,16,0.008,4,0.06,0.06,0.008,0.008,0.008,0.003,0.008,2,0.03,16,0.008,–
CC(C)(O/N=C(\C(=O)N[C@@H]1C(=O)N2C(C(=O)O)=C(CCOC(=O)c3cc(O)c(O)c(Br)c3)CSC12)c1csc(N)n1)C(=O)O (some centres not stated),67.7,1.68,6.5,–,4,0.008,> 128,0.008,2,0.03,0.03,0.008,0.008,0.008,0.03,0.008,2,0.03,–,0.008,MIC [21]: 8 µg/mL; MIC [22]: 8 µg/mL
CCN(CC1=C(C(=O)O)N2C(=O)[C@@H](NC(=O)/C(=N\OC(C)(C)C(=O)O)c3csc(N)n3)C2SC1)C(=O)c1cc(O)c(O)c(Cl)c1 (some centres not stated),16.4,0.87,7.4,–,1,0.008,1,–,1,0.015,0.125,–,0.008,–,0.06,0.008,8,0.25,–,0.008,–
CC(C)(O/N=C(\C(=O)N[C@@H]1C(=O)N2C(C(=O)O)=C(CNS(=O)(=O)c3ccc(O)c(O)c3)CSC12)c1csc(N)n1)C(=O)O (some centres not stated),–,–,8,–,2,0.015,2,–,2,0.03,0.125,–,0.015,–,0.125,0.008,8,0.5,–,–,MIC [23]: 0.008 µg/mL
CC(C)(O/N=C(\C(=O)N[C@@H]1C(=O)N2C(C(=O)O)=C(CCCC(=O)c3cc(O)c(O)c(Cl)c3)CSC12)c1csc(N)n1)C(=O)O (some centres not stated),–,–,–,–,2,0.008,> 32,0.008,1,0.03,0.03,0.008,0.008,0.015,0.015,0.008,1,0.03,–,0.008,MIC [21]: 16 µg/mL; MIC [22]: 16 µg/mL
CC(C)(O/N=C(/C(=O)N[C@@H]1C(=O)N2C(C(=O)O)=C(COC(=O)c3ccc(O)c(O)c3)CSC12)c1csc(N)n1)C(=O)O (some centres not stated),–,–,–,8,8,0.03,> 128,0.008,4,0.06,0.5,0.008,0.008,0.3,0.125,0.008,4,0.125,4,0.008,–
